{"source": "patent US20220127297A1", "about": "“Novel Antibacterial 3\"-Derivatives Of 4,6-Disubstituted 2,5-Dideoxystreptamine Aminoglycoside Antibiotics” (AGILeBiotics B.V., priority 2018, published 2022)", "system": "clinical isolates of multidrug-resistant Klebsiella pneumoniae (and ATCC43816)", "assay": "MIC determination at Fidelta, clinical isolates", "format": "cell-based", "details": "Klebsiella pneumoniae", "text": "3.4.2 MIC Determination at Fidelta (Croatia)\nTested reference compounds. Amikacin sulfate (Cat. No. 01693, Chem-Impex), Gentamicin sulfate (Cat. No. G4918, Sigma Aldrich), Ceftazidime Pentahydrate (Cat. No. 1098130, USP), Meropenem (Cat. No. 1392454, USP), Tobramycin (Cat. No. 1667508, USP).\nMicrobial strains. Klebsiella pneumoniae KP-1919 (abdomen), Klebsiella pneumoniae KP-1935 (urine), Klebsiella pneumoniae KP-1936 (abscess), Klebsiella pneumoniae KP-1937 (blood), Klebsiella pneumoniae KP-1942 (urine), Klebsiella pneumoniae KP-1944 (blood), Klebsiella pneumoniae KP-2027 (tracheal aspirate), Klebsiella pneumoniae KP-2029 (urine), Klebsiella pneumoniae KP-2030 (trachea), Klebsiella pneumoniae KP-2031 (skin), Klebsiella pneumoniae KP-2032 (urine), Klebsiella pneumoniae KP-2033 (urine), Klebsiella pneumoniae KP-2034 (urine), Klebsiella pneumoniae KP-2035 (urine), Klebsiella pneumoniae KP-2036 (urine), Klebsiella pneumoniae KP-2037 (urine), Klebsiella pneumoniae ATCC 43816, Pseudomonas aeruginosa PA-1948 (wound), Pseudomonas aeruginosa PA-1949 (urine), Pseudomonas aeruginosa PA-1950 (sputum), Pseudomonas aeruginosa PA-1952 (wound), Pseudomonas aeruginosa PA-1953 (urine), Pseudomonas aeruginosa PA-1954 (sputum), Pseudomonas aeruginosa PA-1967 (blood), Pseudomonas aeruginosa ATCC27853, Acinetobacter baumannii AB-1931 (urine), Acinetobacter baumannii AB-1932 (urine), Acinetobacter baumannii AB-2017 (bronchial aspirate), Acinetobacter baumannii AB-2018 (skin), Acinetobacter baumannii AB-2019 (bronchial aspirate), Acinetobacter baumannii AB-1964 (blood), Acinetobacter baumannii AB-2025 (skin), Acinetobacter baumannii AB-2026 (skin), Acinetobacter baumannii ATCC17978, methicillin-resistant Staphylococcus aureus MRSA-1995 (liquor), methicillin-resistant Staphylococcus aureus MRSA-1998 (wound), methicillin-resistant Staphylococcus aureus MRSA-1999 (skin), methicillin-resistant Staphylococcus aureus MRSA-2003 (wound), vancomycin-resistant Enterococcus faecium VRE-2005 (urine), vancomycin-resistant Enterococcus faecium VRE-2006 (urine), vancomycin-resistant Enterococcus faecium VRE-2007 (urine), vancomycin-resistant Enterococcus faecium VRE-2008 (urine), vancomycin-resistant Enterococcus faecium VRE-2009 (urine), vancomycin-resistant Enterococcus faecium VRE-2010 (urine), vancomycin-resistant Enterococcus faecium VRE-2011 (rectum), vancomycin-resistant Enterococcus faecium VRE-2012 (rectum), vancomycin-resistant Enterococcus faecium VRE-2013 (rectum).\nCulture media and equipment. BBL™ Mueller Hinton Broth (REF 275730, Lot. 7009699, Becton Dickinson); Mueller Hinton Agar 2 (Ref. No. 97580-500G-F, Lot. No. BCBV4646, Sigma); Cellstar, 96-well plates, U-bottom (Cat. No. 650180, Lot. No. E14123EB, Greiner Bio-one); 96-well deep well plate, 1 mL (Cat. No. 278606, Nunc); Incubator (Binder); Laminar flow (Thermo Scientific); BioPhotometer (Eppendorf); DEN-1B (McFarland Densitometer, Biosan); McFarland standards (polymer microparticle suspension, Biosan).\nCompound preparation. For testing, 5 mg/mL DMSO solutions of the test compounds and reference antibiotics were used. Out of these DMSO solutions, 43.5 μL was transferred to 1656.5 μL of MH media in a deep well plate. Out of these working solutions 100 μL was transferred to wells in the third column of 96-well plates. Plates are previously filled with 50 μL of MH media in all wells except for the wells in the third column. After compound and antibiotic addition, 50 μL was transferred from the third to the fourth column, then from the fourth to the fifth and so on. In this manner, the compounds and antibiotics were plated in 96-well plate in serial two-fold dilutions giving a final concentration range of 64-0.125 μg/mL.\nInoculum preparation. Designations used for clinical isolates were from Fidelta strain collection bank. Microorganisms used were all revived from skim milk storage at −70° C. by plating them on MH agar plates."}
{"smiles": "NC[C@H]1O[C@H](O[C@H]2[C@H](O)[C@@H](O[C@H]3O[C@H](CO)[C@@H](O)[C@H](N)[C@H]3O)[C@H](N)C[C@@H]2N)[C@H](N)C[C@@H]1O", "note": "[Tobramycin, tobramycin]", "values": [{"measurement": "MIC90", "setting": "ATCC43816", "result": 0.125, "unit": "µg/mL"}, {"measurement": "MIC90", "setting": "ATCC43816, KP-1919, Abdomen/VIM, ESBL", "result": 32, "unit": "µg/mL"}, {"measurement": "MIC90", "setting": "ATCC43816, KP-1935, Urine/ESBL, NDM", "result": 32, "unit": "µg/mL"}, {"measurement": "MIC90", "setting": "ATCC43816, KP-1936, Abscess/NDM", "result": 16, "unit": "µg/mL"}, {"measurement": "MIC90", "setting": "ATCC43816, KP-1937, Blood/VIM, ESBL", "result": "> 64", "unit": "µg/mL"}, {"measurement": "MIC90", "setting": "ATCC43816, KP-1942, Urine (catheter)/VIM", "result": 16, "unit": "µg/mL"}, {"measurement": "MIC90", "setting": "ATCC43816, KP-1944, Blood/NDM", "result": 32, "unit": "µg/mL"}, {"measurement": "MIC90", "setting": "ATCC43816, KP-2027, Tracheal aspirate/ESBL, OXA-48, ColR", "result": 16, "unit": "µg/mL"}, {"measurement": "MIC90", "setting": "ATCC43816, KP-2029, Urine/ESBL, OXA-48", "result": 32, "unit": "µg/mL"}, {"measurement": "MIC90", "setting": "ATCC43816, KP-2030, Trachea/ESBL, OXA-48", "result": 64, "unit": "µg/mL"}, {"measurement": "MIC90", "setting": "ATCC43816, KP-2031, Skin/ESBL, OXA-48", "result": 32, "unit": "µg/mL"}, {"measurement": "MIC90", "setting": "ATCC43816, KP-2032, Urine/ESBL, OXA-48", "result": 16, "unit": "µg/mL"}, {"measurement": "MIC90", "setting": "ATCC43816, KP-2033, Urine/OXA-A8", "result": "> 64", "unit": "µg/mL"}, {"measurement": "MIC90", "setting": "ATCC43816, KP-2034, Urine/ESBL, OXA-48", "result": 32, "unit": "µg/mL"}, {"measurement": "MIC90", "setting": "ATCC43816, KP-2035, Urine/ESBL, OXA-48", "result": 64, "unit": "µg/mL"}, {"measurement": "MIC90", "setting": "ATCC43816, KP-2036, Urine/ESBL", "result": 16, "unit": "µg/mL"}, {"measurement": "MIC90", "setting": "ATCC43816, KP-2037, Urine/ESBL, OXA-48", "result": 16, "unit": "µg/mL"}]}
